Here are results for six compounds from PubChem BioAssay AID1259407 (Chemical Carcinogenesis Research Information System (CCRIS), 2018).

The test system of the data set is CCRIS mutagenicity, Ames/micronucleus/aberration tests. The experiment in a line: CCRIS mutagenicity studies.

Structures are written as SMILES. Active and inactive are the calls of the source. How the calls were made is not given here.

For the compound `O=C(O)CCSCCC(=O)O`, the mutagenic call (Test System: Ames Salmonella typhimurium, Strain/Indicator: TA98, Metabolic Activation: None, Method: Preincubation) was “inactive; negative”; the mutagenic call (Test System: Ames Salmonella typhimurium, Strain/Indicator: TA98, Metabolic Activation: Rat, Liver, S-9, Phenobarbital and 5,6-benzoflavone, Method: Preincubation) is “inactive; negative”; the mutagenic call (Test System: Ames Salmonella typhimurium, Strain/Indicator: TA100, Metabolic Activation: None, Method: Preincubation) is “inactive; negative”; the mutagenic call (Test System: Ames Salmonella typhimurium, Strain/Indicator: TA100, Metabolic Activation: Rat, Liver, S-9, Phenobarbital and 5,6-benzoflavone, Method: Preincubation) is “inactive; negative”; the mutagenic call (Test System: Ames Salmonella typhimurium, Strain/Indicator: TA1535, Metabolic Activation: None, Method: Preincubation) was “inactive; negative”; the mutagenic call (Test System: Ames Salmonella typhimurium, Strain/Indicator: TA1535, Metabolic Activation: Rat, Liver, S-9, Phenobarbital and 5,6-benzoflavone, Method: Preincubation) is “inactive; negative”. Also, the mutagenic call by setting is: (Test System: Ames Salmonella typhimurium, Strain/Indicator: TA1537, Metabolic Activation: None, Method: Preincubation) “inactive; negative”; (Test System: Ames Salmonella typhimurium, Strain/Indicator: TA1537, Metabolic Activation: Rat, Liver, S-9, Phenobarbital and 5,6-benzoflavone, Method: Preincubation) “inactive; negative”; (Test System: E. coli, Strain/Indicator: WP2uvrA/pKM101, Metabolic Activation: None, Method: Preincubation) “inactive; negative”; (Test System: E. coli, Strain/Indicator: WP2uvrA/pKM101, Metabolic Activation: Rat, Liver, S-9, Phenobarbital and 5,6-benzoflavone, Method: Preincubation) “inactive; negative”.

Turning to `O=c1c(-c2ccc(O)cc2)coc2cc(O)cc(O)c12`, the mutagenic call (End Point: IN VITRO CHROMOSOMAL ABERRATIONS, Test System: HUMAN PERIPHERAL LYMPHOCYTES, Metabolic Activation: NONE) was “active; positive (structural changes)”; the mutagenic call (End Point: IN VITRO MICRONUCLEUS, Test System: CHINESE HAMSTER V79 CELLS, Metabolic Activation: NONE) was “active; positive”; the mutagenic call (End Point: IN VITRO MICRONUCLEUS, Test System: MOUSE LYMPHOMA L5178Y CELLS, Metabolic Activation: NONE) is “active; positive”; the mutagenic call (End Point: IN VIVO CHROMOSOMAL ABERRATIONS, Test System: MAMMARY GLAND CELLS, USING DUAL PROBE FISH, Species: RAT, Strain/Sex: SPRAGUE-DAWLEY/FEMALE, Route: DIET) is “inactive; negative”; the mutagenic call (End Point: IN VIVO MICRONUCLEUS, Test System: MAMMARY GLAND CELLS, Species: RAT, Strain/Sex: SPRAGUE-DAWLEY/FEMALE, Route: DIET) was “inactive; negative”; the mutagenic call (End Point: MORPHOLOGICAL TRANSFORMATION, Test System: SYRIAN HAMSTER EMBRYO CELLS (SHE), Metabolic Activation: NONE) was “inactive; negative”. In addition, the mutagenic call is “active; positive” (Test System: CHINESE HAMSTER V-79, Strain/Indicator: V-79 (HPRT)/6-THIOGUANINE, Metabolic Activation: NONE); “active; positive (above 90 umol/l)” (Test System: MOUSE LYMPHOMA, Strain/Indicator: L5178Y TK+/-, Metabolic Activation: NONE); “active; positive” (Test System: MOUSE LYMPHOMA, Strain/Indicator: L5178Y TK+/-, Metabolic Activation: S-9); “active; positive” (Test System: SYRIAN HAMSTER EMBRYO CELLS, Strain/Indicator: HPRT/6-THIOGUANINE, Metabolic Activation: NONE, Method: PLATE).

As to `CC(C)(C)OC(=O)CN=[N+]=[N-]`, the mutagenic call (Test System: AMES SALMONELLA TYPHIMURIUM, Strain/Indicator: TA100, Metabolic Activation: RAT, LIVER, S-9, PCB, Method: PREINCUBATION) is “active; positive”.

Consider `Cc1cc2c(c3ccc4c(O)c(O)ccc4c13)CCC2=O`, for which the mutagenic call by setting is: (Test System: AMES SALMONELLA TYPHIMURIUM, Strain/Indicator: TA100, Metabolic Activation: RAT, LIVER, MICROSOMES, 15,16-DIHYDRO-11-METHYL-17(H)-CYCLOPENTA[A] PHENANTHREN-17-ONE, Method: STANDARD PLATE) “inactive; negative”; (Test System: AMES SALMONELLA TYPHIMURIUM, Strain/Indicator: TA100, Metabolic Activation: RAT, LIVER, MICROSOMES, BENZO[A]PYRENE, Method: STANDARD PLATE) “active; positive”; (Test System: AMES SALMONELLA TYPHIMURIUM, Strain/Indicator: TA100, Metabolic Activation: RAT, LIVER, MICROSOMES, CLOFIBRATE, Method: STANDARD PLATE) “inactive; negative”; (Test System: AMES SALMONELLA TYPHIMURIUM, Strain/Indicator: TA100, Metabolic Activation: RAT, LIVER, MICROSOMES, DEXAMETHASONE, Method: STANDARD PLATE) “inactive; negative”; (Test System: AMES SALMONELLA TYPHIMURIUM, Strain/Indicator: TA100, Metabolic Activation: RAT, LIVER, MICROSOMES, ISONIAZID, Method: STANDARD PLATE) “inactive; negative”; (Test System: AMES SALMONELLA TYPHIMURIUM, Strain/Indicator: TA100, Metabolic Activation: RAT, LIVER, MICROSOMES, PHENOBARBITONE, Method: STANDARD PLATE) “inactive; negative”. For the same compound, the mutagenic call (Test System: AMES SALMONELLA TYPHIMURIUM, Strain/Indicator: TA100, Metabolic Activation: RAT, LIVER, MICROSOMES, Method: STANDARD PLATE) is “inactive; negative”.

As to `Nc1ccccc1SCCSc1ccccc1N`, the mutagenic call runs as follows: (Test System: AMES SALMONELLA TYPHIMURIUM, Strain/Indicator: TA98, Metabolic Activation: RAT, LIVER, S-9, AROCLOR 1254, Method: STANDARD PLATE) “inactive; negative”; (Test System: AMES SALMONELLA TYPHIMURIUM, Strain/Indicator: TA100, Metabolic Activation: RAT, LIVER, S-9, AROCLOR 1254, Method: STANDARD PLATE) “active; positive”.

Take `Cc1cnc2ccccc2c1`: the mutagenic call reads like this: (Test System: AMES SALMONELLA TYPHIMURIUM, Strain/Indicator: TA98, Metabolic Activation: NONE, Method: PREINCUBATION) “inactive; negative”; (Test System: AMES SALMONELLA TYPHIMURIUM, Strain/Indicator: TA98, Metabolic Activation: RAT, LIVER, S-9, Method: PREINCUBATION) “inactive; negative”; (Test System: AMES SALMONELLA TYPHIMURIUM, Strain/Indicator: TA100, Metabolic Activation: NONE, Method: PREINCUBATION) “inactive; negative”; (Test System: AMES SALMONELLA TYPHIMURIUM, Strain/Indicator: TA100, Metabolic Activation: RAT, LIVER, S-9, PHENOBARBITAL AND 5,6-BENZOFLAVONE, Method: PREINCUBATION) “active; positive”; (Test System: AMES SALMONELLA TYPHIMURIUM, Strain/Indicator: TA100, Metabolic Activation: RAT, LIVER, S-9, PHENOBARBITAL AND 5,6-NAPHTHOFLAVONE, Method: PREINCUBATION) “active; positive”.
